Data from ChEMBL document CHEMBL1201862, “PubChem BioAssay data set” (2004).
The source made the active and inactive calls.

Columns and labels:
[1] = HepG2 cell cytotoxicity, dose response, cytotoxicity control, plate reader, cherry-pick, antagonist series (AID 743416); type: functional, cell-based
[2] = A549 cell cytotoxicity, dose response, cytotoxicity control, plate reader, cherry-pick, antagonist series (AID 743412); type: functional, cell-based
[3] = HEK293 cell cytotoxicity, dose response, cytotoxicity control, plate reader, cherry-picked samples (AID 743446); type: functional, cell-based
[4] = LGR2 antagonists, dose response, cell-based, HEK293, CRE-luciferase reporter, cherry pick, set 2 (AID 743343); type: functional;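 further: transfected cells were stimulated with diluted bursicon conditioned medium after compound addition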
[5] = MC4R antagonists, dose response, counter-screen for LGR2 antagonist project, cell-based, plate reader, cherry pick (AID 743444); type: functional;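 further: transfected HEK 293 cells stimulated with alpha-MSH peptide; potency of inhibitors of the alpha-MSH evoked signal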
HeLa = assay: HeLa cell cytotoxicity, dose response, cytotoxicity control, ATP luminescence, cherry-pick samples (AID 687004); type: functional, cell-based; conditions: Homo sapiens
[6] = target: 5-hydroxytryptamine receptor 2A (Mus musculus, UniProt P35363); type: functional, cell-based;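 further: CHO-K1 cells with tagged receptor and beta-arrestin; agonist potency measured as compound-induced activation of the receptor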
Mu-type opioid receptor = Mu-type opioid receptor (Homo sapiens, UniProt P35372); type: functional, cell-based;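 further: U2OS cells with beta-arrestin recruitment to OPRM1 by beta-gal complementation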
HEK293 [7] = assay: NOD1 signaling inhibitors, primary screen, cell-based, luminescence, uHTS (AID 1578); type: functional; conditions: Homo sapiens
HEK293 [8] = assay: cells; type: functional, cell-based; conditions: Homo sapiens
Galanin receptor type 3 = Galanin receptor type 3 (Homo sapiens, UniProt O60755); assay: Fluorescence-based cell-based primary high throughput dose response assay to identify antagonists of the Galanin Receptor 3 (GalR3).; type: functional
HEK293 [9] = assay: cells; type: functional, cell-based; conditions: Homo sapiens; remark: listed apart in the source
HEK293 [10] = assay: NOD2 signaling inhibitors in MDP-stimulated cells, cell-based, uHTS, luminescence (AID 2001); type: functional; conditions: Homo sapiens
cells [11] = type: functional, cell-based; conditions: HEK-CNG
cells [12] = type: functional, cell-based
[13] = target: T1, Trace amine-associated receptor 1 (Homo sapiens, UniProt Q96RJ0); assay: Fluorescence-based cell-based high throughput dose response assay to identify agonists of the human trace amine associated receptor 1 (TAAR1).; type: functional
T1 sequence (Q96RJ0 whole entry): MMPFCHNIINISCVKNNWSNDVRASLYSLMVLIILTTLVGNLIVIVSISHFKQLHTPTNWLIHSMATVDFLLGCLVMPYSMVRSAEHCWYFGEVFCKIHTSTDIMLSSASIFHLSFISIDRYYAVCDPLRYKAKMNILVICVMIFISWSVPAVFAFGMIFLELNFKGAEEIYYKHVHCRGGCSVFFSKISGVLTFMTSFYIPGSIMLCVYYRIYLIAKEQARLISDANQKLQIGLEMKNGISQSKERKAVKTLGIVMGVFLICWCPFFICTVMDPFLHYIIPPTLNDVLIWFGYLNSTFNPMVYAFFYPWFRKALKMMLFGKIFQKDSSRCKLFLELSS

[14] = target: T1, Trace amine-associated receptor 1; assay: Counterscreen for agonists of the human trace amine associated receptor 1 (hTAAR1): Fluorescence-based cell-based high throughput dose response assay to identify hTAAR1 agonist that also desensitize TAAR1 receptor response.; type: functional
cells [15] = type: functional, cell-based; remark: listed apart in the source
[16] = non-specific cell cytotoxicity, dose response, cytotoxicity control for PAX8 inhibitor project, plate reader, dry powder samples (AID 743021); type: functional, cell-based
[17] = target: T2, Small ubiquitin-related modifier 1 (Homo sapiens, UniProt P63165); assay: inhibitors of SUMO1 partner interactions, dose response, biochemical, FRET (AID 624383); type: functional; conditions: read-out: IC50_Mean
[18] = target: T2, Small ubiquitin-related modifier 1; assay: inhibitors of SUMO1 peptide binding, dose response, biochemical, fluorescence polarization, uHTS hits (AID 624382); type: functional; conditions: read-out: IC50_Mean
Paired box protein Pax-8 = Paired box protein Pax-8 (Homo sapiens, UniProt Q06710); assay: inhibitors of PAX8-driven TPO luciferase reporter, dose response, RMG-I cells, cherry-pick (AID 687027); type: functional, cell-based;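 further: luciferase reporter driven by Pax8 target thyroperoxidase promoter measured by SteadyGlo luminescence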
Beta-galactosidase = Beta-galactosidase (Escherichia coli, UniProt Q8VNN2); assay: Dose response counterscreen for EBI2 assay utilizing the enzyme, b-galactosidase.; type: functional
[19] = target: Peroxisome proliferator-activated receptor gamma/Nuclear receptor coactivator 1 (Homo sapiens, UniProt P37231); assay: TR-FRET dose response biochemical High Throughput Screening assay for agonists of the steroid receptor coactivator 1 (SRC-1) recruitment by the peroxisome proliferator-activated receptor gamma (PPAR gamma): non-selective agonists. [Related pubchem assays (depositor defined):AID1300, AID1808, AID504735, AID631]; type: protein assay
[20] = target: Peroxisome proliferator-activated receptor gamma/Nuclear receptor coactivator 2 (Homo sapiens, UniProt P37231); assay: TR-FRET dose response biochemical High Throughput Screening assay for agonists of the steroid receptor coactivator 2 (SRC-2) recruitment by the peroxisome proliferator-activated receptor gamma (PPAR gamma): non-selective agonists. [Related pubchem assays: 1297, 1032 ]; type: functional
cells [21] = assay: cells
Major prion protein = Major prion protein (Homo sapiens, UniProt P04156); type: functional, cell-based
[22] = target: Peroxisome proliferator-activated receptor gamma/Nuclear receptor coactivator 3 (Homo sapiens, UniProt P37231); assay: TR-FRET dose response biochemical High Throughput Screening assay for agonists of the steroid receptor coactivator 3 (SRC-3) recruitment by the peroxisome proliferator-activated receptor gamma (PPAR gamma): non-selective agonists. [Related pubchem assays: 1301 (Confirmation screen.), 1048 (Primary screen.)]; type: functional
[23] = HepG2 cell cytotoxicity, dose response, cytotoxicity control, cherry-picked samples (AID 1159577); type: functional, cell-based
[24] = IGROV1 ovarian cancer cell cytotoxicity, dose response, PAX8 inhibitor project, plate reader, dry powder samples (AID 743043); type: functional, cell-based; conditions: IGROV-1
[25] = P. falciparum Dd2 growth inhibitors, dose response, SYBR Green, cherry-picked samples (AID 1159567); type: functional, cell-based
[26] = inhibitors of PGC1a acetylation in cells, dose response, cell-based, cherry-picked samples (AID 720514); type: functional;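 further: potency may reflect raised or lowered acetylation signal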
[27] = cytotoxicity in OVCAR8 ovarian cancer cells, dose response, PAX8 project, cell-based, plate reader, dry powder samples (AID 743197); type: functional; conditions: OVCAR-8
[28] = ZM109 Env clade C HIV-1 fusion inhibitors, dose response, HeLa effector, CEM target cells, luciferase, cherry-pick (AID 652058); type: functional, cell-based
[29] = CEM21 lymphoblast cell cytotoxicity, dose response, cytotoxicity control for viral fusion inhibitor project, CellTiter-Glo luminescence, cherry-picked (AID 652042); type: functional, cell-based;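 further: potency for signal decrease meaning cytotoxicity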
[30] = target: Matrix metalloproteinase-14 (Homo sapiens, UniProt P50281); assay: Dose Response confirmation of uHTS hits for a small molecule inhibitors of MT1-MMP activation in a fluorescence assay set 1.; type: functional
[31] = Luminescence-based cell-based high throughput dose response assay to identify activators of the DAF-12 from the parasite S. stercoralis (ssDAF-12).; type: functional
[32] = target: T3, Methionyl-tRNA synthetase, putative (Trypanosoma brucei brucei, UniProt Q38C91); type: functional, Trypanosoma brucei brucei strain 927/4 GUTat10.1
T3 sequence (Q38C91 whole entry): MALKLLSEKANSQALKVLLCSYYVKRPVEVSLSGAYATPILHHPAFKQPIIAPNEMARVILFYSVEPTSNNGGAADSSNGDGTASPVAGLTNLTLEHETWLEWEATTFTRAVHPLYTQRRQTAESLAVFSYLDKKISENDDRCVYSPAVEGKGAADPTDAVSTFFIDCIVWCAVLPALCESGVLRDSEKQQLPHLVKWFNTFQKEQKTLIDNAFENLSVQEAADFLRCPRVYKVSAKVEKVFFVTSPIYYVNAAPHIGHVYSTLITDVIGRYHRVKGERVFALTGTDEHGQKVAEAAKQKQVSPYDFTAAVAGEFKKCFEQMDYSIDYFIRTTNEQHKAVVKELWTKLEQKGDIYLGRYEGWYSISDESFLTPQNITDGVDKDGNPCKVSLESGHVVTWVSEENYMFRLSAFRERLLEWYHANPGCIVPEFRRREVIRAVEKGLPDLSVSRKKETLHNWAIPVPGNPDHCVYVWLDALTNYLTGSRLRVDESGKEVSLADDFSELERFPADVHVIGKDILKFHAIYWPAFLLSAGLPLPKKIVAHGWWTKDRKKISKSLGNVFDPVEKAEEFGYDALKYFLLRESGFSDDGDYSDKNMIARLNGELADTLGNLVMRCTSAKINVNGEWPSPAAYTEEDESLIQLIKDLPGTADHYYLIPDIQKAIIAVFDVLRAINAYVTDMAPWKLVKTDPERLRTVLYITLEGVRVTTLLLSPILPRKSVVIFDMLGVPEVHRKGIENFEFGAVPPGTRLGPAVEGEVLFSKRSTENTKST

[33] = NIH-3T3 fibroblast cytotoxicity, dose response, cytotoxicity control, cell-based, fluorescence, Alamar Blue, secondary assay (AID 2327); type: functional;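 further: NIH-3T3 mouse fibroblasts cultured with fluconazole at 8 µg/mL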
[34] = Counterscreen for inhibitors of Trypanosoma brucei methionyl tRNA synthetase (MetRS): Luminescence-based cell-based high throughput dose response assay to identify compounds that are cytotoxic to Jurkat human T lymphocyte cells.; type: functional
[35] = C. albicans growth with fluconazole, confirmation, fluorescence, retest (AID 2467); type: functional, cell-based
[36] = target: T3, Methionyl-tRNA synthetase, putative; type: functional, Trypanosoma brucei brucei strain 927/4 GUTat10.1; remark: listed apart in the source

COc1cccc2c1C(=O)O/C2=C/c1ccc2c(c1)OCO2
AC50 [1]: > 52 µM (inactive)
AC50 [2]: > 52 µM (inactive)
AC50 [3]: > 52 µM (inactive)
AC50 [4]: 2.1 µM (active)
AC50 [5]: 2.69 µM (active)

COc1cccc(-c2ccc3c(c2)[C@H]2[C@H](CCN2C(=O)Cc2ccncc2)[C@H](CO)N3C)c1
AC50 (HeLa): > 52 µM (inactive)

CC1CC(C)CN(CCOc2cccc(Cl)c2Cl)C1 (stereo not drawn)
EC50 [6]: 0.281 µM (active)
EC50 (Mu-type opioid receptor): 92.5 µM (inactive)

Cc1oc(-c2ccc(Cl)cc2)nc1CSCC(=O)NC1CCN(Cc2ccccc2)CC1
EC50 (HEK293 [7]): 2.62 µM (active)
IC50 (HEK293 [8]): 1.68 µM (active)
IC50 (Galanin receptor type 3): 1.29 µM (active)
IC50 (HEK293 [9]): 9.78 µM (active)
IC50 (HEK293 [10]): 3.08 µM (active)
EC50 (cells [11]): > 29.9 µM (inactive)

Cc1ccc(CCNc2ncnc(Cl)c2N)cc1
IC50 (Galanin receptor type 3): 0.626 µM (active)
EC50 (cells [11]): > 29.9 µM (inactive)

Cc1cc(C)c(C#N)c(SCC(=O)c2cc(C)n(CCc3ccccc3)c2C)n1
EC50 (cells [12]): > 29.9 µM (inactive)
EC50 [13]: 1.15 µM (active)
IC50 [14]: 4.68 µM (active)
IC50 (cells [15]): > 29.9 µM (inactive)

O=C(NCc1cc(C(F)(F)F)ccc1Cl)c1cccc2c1C(=O)c1ccc(N3CCC(N4CCCCC4)CC3)cc1S2(=O)=O
AC50 [16]: 19.7 µM (active)
IC50 [17]: 11.1 µM (active)
IC50 [18]: > 66.6 µM (inactive)
AC50 (Paired box protein Pax-8): 11.7 µM (active)

CCOC(=O)N1CCN(C(=O)COc2ccc(Br)cc2)CC1
IC50 (Beta-galactosidase): > 80 µM (inactive)

Cc1ccc(Sc2c(O)c3ccccc3n(C)c2=O)cc1
EC50 [19]: > 79.4 µM (inactive)
EC50 [20]: > 79.4 µM (not active)
IC50 (cells [21]): > 138 µM (inactive)
IC50 (Major prion protein): 7.12 µM (active)
EC50 [22]: > 79.4 µM (not active)

COc1ccc2c3c(n(C)c2c1)[C@H](CO)NCC31CCN(Cc2cc(-c3ccccc3)on2)CC1
AC50 [16]: 43 µM (active)
AC50 [23]: 7.77 µM (active)
AC50 [24]: 25.1 µM (active)
AC50 [25]: 1.64 µM (active)
AC50 [26]: 12.9 µM (active)
AC50 (Paired box protein Pax-8): 7.96 µM (active)
AC50 [27]: 24.1 µM (active)

Cc1ccc(NC(=O)CN2CCN(c3ccccn3)CC2)cc1S(=O)(=O)N(C)C
EC50 [6]: 0.685 µM (active)
EC50 (Mu-type opioid receptor): 92.5 µM (inactive)

CC1(C)N=C(N)N=C(N)N1CCCCc1ccccc1
AC50 [28]: 1.34 µM (active)
AC50 [29]: 1.63 µM (active)

CCC(Sc1ccc2nnc(-c3ccc(F)cc3)n2n1)C(=O)O (stereo not drawn)
IC50 (cells [21]): > 138 µM (inactive)
IC50 (Major prion protein): 13 µM (inactive)

CN1C(=O)/C(=C2/C=Cc3ccccc3N2CCCS(=O)(=O)O)SC1=S
IC50 [30]: > 80 µM (inactive)

COc1ccc(-c2cn3ccccc3n2)cc1OC
IC50 [31]: > 67.5 µM (inactive)

Cc1ccc(/C=C/C(=O)N2CCCN(C(=O)/C=C/c3ccc(C)cc3)CC2)cc1
IC50 (Beta-galactosidase): > 80 µM (inactive)

COc1ccc(N(CC(=O)NCCSCc2ccc(C)cc2)S(=O)(=O)c2ccccc2)cc1
AC50 (HeLa): > 52 µM (inactive)

Cc1ccc(SCCC(=O)N/N=C/c2ccccc2O)cc1
IC50 [32]: 4.39 µM (active)
EC50 [33]: > 160 µM (inactive)
IC50 [34]: 16.1 µM (inactive)
EC50 [35]: 4.74 µM (active)
IC50 [36]: 4.49 µM (active)

CN1C2=CC=CC=CC2=[N+](C)C12C=CC(=[N+]([O-])[O-])C=C2[N+](=O)[O-] (stereo not drawn)
IC50 [30]: 54.2 µM (inactive)
